Measurements published in patent US6750228B1, “Aromatic sulfone hydroxamic acid metalloprotease inhibitor” (priority 1997, dated 2004).
pIC50: −log10 of the molar value. Counter-ions that a name gives are not always drawn.

Columns and labels:
Assay in all cases: biochemical
MMP-2 = biological target: T1, MMP-2 (Homo sapiens, UniProt P08253); details: recombinant human MMP-2, MCA peptide substrate 4 μM, pH 7.5, room temperature; read-out: MMP-2 IC50
T1 construct: made in house; provided by Dr. Gregory Goldberg, Washington University
T1 sequence (P08253 110-660): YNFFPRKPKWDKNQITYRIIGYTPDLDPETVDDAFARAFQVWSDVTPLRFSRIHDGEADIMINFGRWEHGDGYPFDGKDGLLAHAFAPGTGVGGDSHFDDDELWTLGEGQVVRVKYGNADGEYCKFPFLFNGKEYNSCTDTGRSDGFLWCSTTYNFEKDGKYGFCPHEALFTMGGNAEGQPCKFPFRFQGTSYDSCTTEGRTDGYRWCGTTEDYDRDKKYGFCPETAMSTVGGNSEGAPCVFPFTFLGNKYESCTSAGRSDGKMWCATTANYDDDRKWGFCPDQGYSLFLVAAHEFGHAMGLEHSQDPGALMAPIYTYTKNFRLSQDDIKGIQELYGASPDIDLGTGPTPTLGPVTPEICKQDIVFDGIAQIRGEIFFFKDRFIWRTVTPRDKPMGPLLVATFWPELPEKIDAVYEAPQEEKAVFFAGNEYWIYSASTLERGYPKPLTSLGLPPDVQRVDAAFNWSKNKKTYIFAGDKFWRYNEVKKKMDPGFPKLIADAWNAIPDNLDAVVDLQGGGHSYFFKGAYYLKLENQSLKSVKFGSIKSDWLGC
How it was run: (§1)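 APMA- or trypsin-activated enzymes were preincubated with inhibitor for 5 min at room temperature, then the fluorogenic substrate MCA-Pro-Leu-Gly-Leu-Dpa-Ala-Arg-NH2 was added to a final 4 μM.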

MMP-1 = biological target: T2, MMP-1 (Homo sapiens, UniProt P03956); details: recombinant human MMP-1, MCA peptide substrate 4 μM, pH 7.5, room temperature; read-out: MMP-1 IC50
T2 construct: made in house; host or cells: transfected HT-1080 cells (provided by Dr. Harold Welgus, Washington University)
T2 sequence (P03956 100-469): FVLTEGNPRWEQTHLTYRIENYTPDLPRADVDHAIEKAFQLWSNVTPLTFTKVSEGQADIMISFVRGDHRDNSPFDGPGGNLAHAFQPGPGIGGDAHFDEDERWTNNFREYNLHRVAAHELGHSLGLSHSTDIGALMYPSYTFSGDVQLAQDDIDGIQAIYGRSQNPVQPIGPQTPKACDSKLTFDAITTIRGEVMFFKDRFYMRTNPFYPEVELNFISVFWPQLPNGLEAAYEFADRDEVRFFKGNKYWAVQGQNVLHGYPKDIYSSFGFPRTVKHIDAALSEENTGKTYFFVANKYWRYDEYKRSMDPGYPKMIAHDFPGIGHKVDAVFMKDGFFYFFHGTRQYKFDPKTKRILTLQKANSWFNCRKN
How it was run: as §1

MMP-13 = biological target: T3, MMP-13 (Homo sapiens, UniProt P45452); details: recombinant human MMP-13, MCA peptide substrate 4 μM, pH 7.5, room temperature; read-out: MMP-13 IC50
T3 construct: made in house; host or cells: baculovirus / insect cells
How it was run: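 Assay buffer 100 mM Tris-HCl, 100 mM NaCl, 10 mM CaCl2, pH 7.5. Activated MMP + inhibitor, 5 min RT; then methoxycoumarin peptide substrate, 4 μM final. Readout fluorescence; IC50 calculated.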

Row | SMILES | pIC50 (MMP-2) | pIC50 (MMP-1) | pIC50 (MMP-13)
1 | O=C(NO)C1(S(=O)(=O)c2ccc(N3CCC(Sc4ccc(OC(F)(F)F)cc4)CC3)cc2)CCN(C2CC2)CC1 [Example 415] | 6.61 | < 5.00 | 7.30
2 | O=C(NO)C1(S(=O)(=O)c2ccc(N3CCC(CCOCc4cccc(C(F)(F)F)c4)CC3)cc2)CCOCC1 [Example 503] | 7.30 | < 5.00 | 8.00
3 | Cn1ccnc1CN1CCC(C(=O)NO)(S(=O)(=O)c2ccc(Oc3ccc(OC(F)(F)F)cc3)cc2)CC1 [Example 386] | 9.70 | 5.68 | 9.40
4 | CC(C)OCc1ccc(COC2CCN(c3ccc(S(=O)(=O)C4(C(=O)NO)CCOCC4)cc3)CC2)cc1 [Example 554] | 6.85 | < 5.00 | 8.43
5 | O=C(c1cc(F)cc(F)c1)C1CCN(c2ccc(S(=O)(=O)C3(C(=O)NO)CCOCC3)cc2)CC1 [Example 724] | 6.52 | < 5.00 | 7.54
6 | COc1ccccc1NC(=O)N1CCC(C(=O)NO)(S(=O)(=O)c2ccc(Oc3ccc(OC(F)(F)F)cc3)cc2)CC1 [Example 357] | 10.00 | < 5.00 | 9.52
7 | O=C(CNCc1ccccn1)N1CCC(C(=O)NO)(S(=O)(=O)c2ccc(Oc3ccc(C(F)(F)F)cc3)cc2)CC1 [Example 320] | 8.40 | < 5.00 | 7.92
8 | O=C(NO)C1(S(=O)(=O)c2ccc(Oc3ccc(OC(F)(F)F)cc3)cc2)CCN(c2ccccn2)CC1 [Example 352] | 9.52 | < 5.00 | 8.85
9 | COCCN1CCC(C(=O)NO)(S(=O)(=O)c2ccc(N3CCC(OCc4ccc(F)cc4)CC3)cc2)CC1 [Example 448] | 6.27 | < 5.00 | 8.62
10 | CC(C)c1cccc(OC2CCN(c3ccc(S(=O)(=O)C4(C(=O)NO)CCOCC4)cc3)CC2)c1 [Example 482] | 8.40 | < 5.00 | 8.22
11 | COCCN(CCOC)CC(=O)N1CCC(C(=O)NO)(S(=O)(=O)c2ccc(N3CCC(C(=O)N4CC(C)CC(C)C4)CC3)cc2)CC1 (stereo not drawn) [Example 303] | < 5.00 | < 5.00 | 6.94
12 | C=Cc1ccc(C(=O)C2CCN(c3ccc(S(=O)(=O)C4(C(=O)NO)CCOCC4)cc3)CC2)cc1 [Example 787] | 6.76 | < 5.00 | 8.92
13 | C#CCN1CCC(C(=O)NO)(S(=O)(=O)c2ccc(Oc3ccc(OC(F)(F)F)cc3)cc2)CC1 [Example 349] | > 10.00 | 5.59 | 9.70
14 | O=C(NO)C1(S(=O)(=O)c2ccc(N3CC[C@@H](OCc4ccccc4)C3)cc2)CCOCC1 [Example 530] | 7.22 | < 5.00 | 7.70
15 | CCC(C)COCc1ccc(COC2CCN(c3ccc(S(=O)(=O)C4(C(=O)NO)CCOCC4)cc3)CC2)cc1 (stereo not drawn) [Example 601] | 5.89 | < 5.00 | 8.05
16 | Nc1ccc(OC2CCN(c3ccc(S(=O)(=O)C4(C(=O)NO)CCOCC4)cc3)CC2)cc1 [Example 553] | 7.30 | < 5.00 | 7.89
17 | COCCNCCCCC(=O)N1CCC(C(=O)NO)(S(=O)(=O)c2ccc(Oc3ccc(C(F)(F)F)cc3)cc2)CC1 [Example 347] | 9.15 | < 5.00 | 8.52
18 | O=C(CN1CCCCC1)N1CCC(C(=O)NO)(S(=O)(=O)c2ccc(Oc3ccc(C(F)(F)F)cc3)cc2)CC1 [Example 318] | 10.00 | < 5.00 | 9.52
19 | O=C(Nc1ccc(Cl)c(Cl)c1)N1CCC(C(=O)NO)(S(=O)(=O)c2ccc(Oc3ccc(OC(F)(F)F)cc3)cc2)CC1 [Example 359] | 7.91 | < 5.00 | 7.46

Row | SMILES | pIC50 (MMP-2) | pIC50 (MMP-1) | pIC50 (MMP-13)
20 | Cc1cccc(S(=O)(=O)N2CCN(c3ccc(S(=O)(=O)C4(C(=O)NO)CCOCC4)cc3)CC2)c1 [Example 671] | 6.89 | < 5.00 | 8.22
21 | CCN(CC)Cc1ccc(COC2CCN(c3ccc(S(=O)(=O)C4(C(=O)NO)CCOCC4)cc3)CC2)cc1 [Example 523] | 6.72 | < 5.00 | 8.62
22 | COc1ccc(S(=O)(=O)N2CCN(c3ccc(S(=O)(=O)C4(C(=O)NO)CCOCC4)cc3)CC2)cc1OC [Example 683] | 6.54 | < 5.00 | 7.95
23 | CC1CC(C)CN(C(=O)C2CCN(c3ccc(S(=O)(=O)C4(C(=O)NO)CCN(C(=O)CNCc5cccs5)CC4)cc3)CC2)C1 (stereo not drawn) [Example 282] | 5.05 | < 5.00 | 7.83
24 | CCOc1ccc(C(=O)C2CCN(c3ccc(S(=O)(=O)C4(C(=O)NO)CCOCC4)cc3)CC2)cc1 [Example 791] | 6.15 | < 5.00 | 8.70
25 | COCCN1CCC(C(=O)NO)(S(=O)(=O)c2ccc(N3CCC(C(=O)N(C)CCc4ccccn4)CC3)cc2)CC1 [Example 235, 1-[4-[[4[(Hydroxyamino)carbonyl]-1-(2-methoxyethyl)-4-piperidinyl]sulfonyl]phenyl]-N-methyl-N-[2-(2-pyridinyl)ethyl]-4-piperidinecarboxamide, Dihydrochloride] | 5.28 | < 5.00 | 6.63
26 | O=C(NO)C1(S(=O)(=O)c2ccc(Oc3ccc(C(F)(F)F)cc3)cc2)CCN(c2ccccn2)CC1 [Example 395] | 9.30 | < 5.00 | 9.05
27 | CC1CC(C)CN(C(=O)C2CCN(c3ccc(S(=O)(=O)C4(C(=O)NO)CCN(C(C)C)CC4)cc3)CC2)C1 (stereo not drawn) [Example 458] | 5.68 | < 5.00 | 6.68
28 | C=Cc1cccc(C(=O)C2CCN(c3ccc(S(=O)(=O)C4(C(=O)NO)CCOCC4)cc3)CC2)c1 [Example 786] | 6.15 | < 5.00 | 8.43
29 | O=C(CCc1cnc[nH]1)N1CCC(C(=O)NO)(S(=O)(=O)c2ccc(Oc3ccc(OC(F)(F)F)cc3)cc2)CC1 [Example 350] | > 10.00 | 5.22 | 10.00
30 | O=C(NO)C1(S(=O)(=O)c2ccc(N3CCC(Oc4ccccc4F)CC3)cc2)CCOCC1 [Example 547] | 7.19 | < 5.00 | 8.30
31 | Cc1ccc(C(=O)C2CCN(c3ccc(S(=O)(=O)C4(C(=O)NO)CCOCC4)cc3)CC2)cc1C [Example 737] | 5.89 | < 5.00 | 8.52
32 | O=C(NO)C1(S(=O)(=O)c2ccc(N3CCCCC3CCOCc3ccc(Cl)c(Cl)c3)cc2)CCOCC1 (stereo not drawn) [Example 513] | < 5.00 | < 5.00 | 5.11
33 | O=C(NO)C1(S(=O)(=O)c2ccc(N3CCC(Oc4ccccc4[N+](=O)[O-])CC3)cc2)CCOCC1 [Example 552] | 6.85 | < 5.00 | 7.89
34 | COCCN1CCC(C(=O)NO)(S(=O)(=O)c2ccc(N3CCC(C(=O)NC4Cc5ccccc5C4)CC3)cc2)CC1 [Example 242, 4-[[4-[4-[[(2,3-Dihydro-1H-inden-2-yl)amino]carbonyl]-1-piperidinyl]phenyl]sulfonyl]-N-hydroxy-1-(2-methoxyethyl)-4-piperidinecarboxamide, Monohydrochloride] | 5.82 | < 5.00 | 7.37
35 | CC(C)(C)OC1CCN(c2ccc(S(=O)(=O)C3(C(=O)NO)CCOCC3)cc2)CC1 [Example 693] | 5.72 | < 5.00 | 6.68
36 | CN1CCCN(C2CCN(c3ccc(S(=O)(=O)C4(C(=O)NO)CCOCC4)cc3)CC2)CC1 [Example 807] | 5.85 | < 5.00 | 6.70
37 | O=C(NO)C1(S(=O)(=O)c2ccc(N3CCC(S(=O)(=O)c4ccccc4)CC3)cc2)CCN(C2CC2)CC1 [Example 409] | 6.56 | < 5.00 | 7.65
38 | CC(=N)N1CCC(C(=O)NO)(S(=O)(=O)c2ccc(Oc3ccc(OC(F)(F)F)cc3)cc2)CC1 [Example 412] | 9.70 | 5.19 | 9.40
